Experiment [1] deals with patients with hypertension and hyperlipidemia. Put plainly: Clinical test of combined vs single administration: change of sitDBP after 8 weeks. Conditions: valsartan 160 mg and/or rosuvastatin 20 mg. The class given is in vivo, human. The procedure:
(§1) The following tests were performed for patients with hypertension and hyperlipidemia to evaluate the efficacy and safety of the combined administration of 160 mg of valsartan and 20 mg of rosuvastatin in comparison with single administration of each of them.
(§2) A screening inspection was conducted for the subjects, who were 20- to 80-year-old patients suffering from hypertension and hyperlipidemia, to ascertain whether they met the selection/exclusion criteria, and administration of the drugs for treating hypertension and hyperlipidemia, which the subjects had taken, was stopped. All the patients who passed the screening inspection were subjected to Therapeutic Lifestyle Change (TLC) for 4 to 6 weeks, and their blood pressure and fasting serum lipid level were measured finally in the measurement 2 (0 week) visit. If the measured values were recognized as suitable to the following criteria, the patient was randomly assigned to one group of the four (4) treatment groups. […]
(§3) According to random assignment, each subject was assigned with the same probability to one of a total of four groups consisting of one combined administration group (group 1), two single administration groups (groups 2 and 3) and one placebo group (group 4) as shown in the following table. […] The visit window was±4 days at each visit, and the timing of visit was determined with the standard of 0 week. […]

Experiment [2] shares this test system. Put plainly: Clinical test of combined vs single administration: change of LDL-C after 8 weeks. Type of experiment: in vivo, human. The following applies: valsartan 160 mg and/or rosuvastatin 20 mg. How it is done: as §1, §2, §3

As to `CC(C)c1nc(N(C)S(C)(=O)=O)nc(-c2ccc(F)cc2)c1/C=C/[C@@H](O)C[C@@H](O)CC(=O)O` [Example R20, rosuvastatin], the “average amount of change of sitDBP from the baseline (Least Square Mean)” value in experiment [1] was −3.64 mmHg. Besides, in experiment [2], the “average rate of change of LDL-C from the baseline (Least Square Mean)” value is recorded as −47.27%.
Turning to `CCCCC(=O)N(Cc1ccc(-c2ccccc2-c2nnn[nH]2)cc1)[C@H](C(=O)O)C(C)C` [Example V160, valsartan], the “average amount of change of sitDBP from the baseline (Least Square Mean)” value in experiment [1] was −7.26 mmHg. Besides, in experiment [2], the “average rate of change of LDL-C from the baseline (Least Square Mean)” value is given as −4.52%.

For the origin of these results see patent US20160045497A1, “COMPLEX PREPARATION INCLUDING VALSARTAN AND ROSUVASTATIN CALCIUM AND MANUFACTURING METHOD THEREFOR” (LG LIFE SCIENCES LTD., priority 2013, published 2016).
